Data reported in the supplement of paper PMC10307832.

Legend:
Assay in all cases: relative viability (nuclei count vs DMSO), 5 days (fraction); higher = more cells survive
[1] = compound: O=c1[nH]cc(F)c(=O)[nH]1 [5-Fluorouracil] + CC1(C)CCC(c2ccc(Cl)cc2)=C(CN2CCN(c3ccc(C(=O)NS(=O)(=O)c4ccc(N[C@H](CCN5CCOCC5)CSc5ccccc5)c(S(=O)(=O)C(F)(F)F)c4)cc3)CC2)C1 [Navitoclax] (partner 0.5 µM)
Summary of the method: (§1)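 Nuclei were stained with Hoechst during a one-step fixation (final 0.05% Triton X-100, 1% formaldehyde, 1 ug/ml Hoechst) carried out 5 days after dosing, then counted on 4× images. The cells, lung cancer lines in 1536-well plates, had been dosed by pin tool the day after seeding with one drug alone or a fixed anchor-drug dose plus five library-drug doses (not always all listed) in √10 steps. Relative viability is the nuclei count in treated wells divided by that in vehicle wells, and each value is the median of duplicate plates.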

[2] = compound: O=c1[nH]cc(F)c(=O)[nH]1 [5-Fluorouracil] + COc1cc2c(Oc3ccc(NC(=O)C4(C(=O)Nc5ccc(F)cc5)CC4)cc3F)ccnc2cc1OCCCN1CCOCC1 [Foretinib] (partner 0.25 µM)
Summary of the method: as §1

[3] = compound: O=c1[nH]cc(F)c(=O)[nH]1 [5-Fluorouracil] + Cc1nc(Nc2ncc(C(=O)Nc3c(C)cccc3Cl)s2)cc(N2CCN(CCO)CC2)n1 [Dasatinib] (partner 0.075 µM)
Summary of the method: as §1

[4] = compound: O=c1[nH]cc(F)c(=O)[nH]1 [5-Fluorouracil] + Nc1nc2[nH]cc(CCc3ccc(C(=O)N[C@@H](CCC(=O)O)C(=O)O)cc3)c2c(=O)[nH]1 [Pemetrexed] (partner 0.2 µM)
Summary of the method: as §1

Cell Line | relative viability ([1]; first compound 0.02 µM) | relative viability ([1]; first compound 0.2 µM) | relative viability ([1]; first compound 0.6325 µM) | relative viability ([1]; first compound 2 µM) | relative viability ([2]; first compound 0.02 µM) | relative viability ([2]; first compound 0.2 µM) | relative viability ([2]; first compound 0.6325 µM) | relative viability ([2]; first compound 2 µM) | relative viability ([3]; first compound 0.02 µM) | relative viability ([3]; first compound 0.2 µM) | relative viability ([3]; first compound 0.6325 µM) | relative viability ([3]; first compound 2 µM) | relative viability ([4]; first compound 0.02 µM) | relative viability ([4]; first compound 0.2 µM) | relative viability ([4]; first compound 0.6325 µM) | relative viability ([4]; first compound 2 µM)
NCI-H596 | 0.804 | 0.753 | 0.566 | 0.347 | 0.76 | 0.794 | 0.572 | 0.488 | 0.717 | 0.605 | 0.48 | 0.366 | 0.547 | 0.524 | 0.486 | 0.435
NCI-H647 | 1.24 | 1.06 | 1.09 | 0.729 | 1.25 | 1.32 | 0.997 | 0.796 | 0.193 | 0.232 | 0.206 | 0.188 | 0.187 | 0.182 | 0.176 | 0.164
NCI-H838 | 1.14 | 1.06 | 0.572 | 0.28 | 1 | 1.06 | 0.523 | 0.317 | 0.293 | 0.291 | 0.243 | 0.27 | 0.261 | 0.253 | 0.257 | 0.249
NCI-H1355 | 0.699 | 0.651 | 0.353 | 0.241 | 0.883 | 0.681 | 0.338 | 0.256 | 0.824 | 0.58 | 0.283 | 0.234 | 0.928 | 0.762 | 0.311 | 0.257
NCI-H1395 | 0.997 | 1.21 | 1.07 | 1.12 | 0.827 | 1.14 | 1.05 | 0.987 | 0.39 | 0.45 | 0.367 | 0.442 | 0.743 | 0.994 | 0.902 | 0.893
NCI-H1437 |  | 0.243 | 0.203 | 0.139 | 0.687 | 0.359 | 0.273 | 0.225 | 0.369 | 0.183 | 0.189 | 0.137 | 0.269 | 0.271 | 0.208 | 0.262
NCI-H1650 | 1.29 | 0.82 | 0.63 | 0.294 | 0.963 | 1.09 | 0.776 | 0.37 | 0.297 | 0.291 | 0.202 | 0.218 | 0.362 | 0.335 | 0.353 | 0.286
NCI-H1651 | 1.09 | 0.9 | 0.574 | 0.42 | 0.797 | 0.835 | 0.537 | 0.509 | 0.438 | 0.363 | 0.276 | 0.401 | 0.502 | 0.457 | 0.3 | 0.305
NCI-H1666 | 0.878 | 0.406 | 0.327 | 0.311 | 0.969 | 0.672 | 0.466 | 0.405 | 0.848 | 0.555 | 0.4 | 0.391 | 0.922 | 0.763 | 0.61 | 0.548
NCI-H1734 | 0.795 | 0.932 | 0.765 | 0.428 | 0.859 | 0.881 | 0.756 | 0.46 | 0.41 | 0.521 | 0.407 | 0.291 | 0.419 | 0.412 | 0.401 | 0.45
NCI-H1755 | 0.982 | 0.757 | 0.291 | 0.198 | 0.909 | 0.854 | 0.365 | 0.319 | 0.416 | 0.442 | 0.247 | 0.184 | 0.509 | 0.367 | 0.32 | 0.295
NCI-H1793 | 0.385 | 0.53 | 0.403 | 0.289 | 0.683 | 0.674 | 0.57 | 0.406 | 0.378 | 0.413 | 0.368 | 0.313 | 0.944 | 0.942 | 0.695 | 0.503
NCI-H1915 | 0.714 | 0.8 | 0.779 | 0.668 | 1.01 | 1.09 | 1.06 | 0.81 | 0.305 | 0.31 | 0.303 | 0.266 | 0.395 | 0.542 | 0.421 | 0.419
NCI-H1944 | 0.926 | 0.862 | 0.331 | 0.24 | 0.834 | 0.702 | 0.314 | 0.184 | 0.21 | 0.225 | 0.138 | 0.127 | 0.523 | 0.527 | 0.249 | 0.179
NCI-H1975 | 1.11 | 1.1 | 0.514 | 0.261 | 0.999 | 0.898 | 0.469 | 0.259 | 0.363 | 0.387 | 0.307 | 0.231 | 0.309 | 0.28 | 0.243 | 0.219
NCI-H1993 | 0.952 | 0.885 | 0.752 | 0.669 | 0.741 | 0.728 | 0.706 | 0.667 | 0.581 | 0.566 | 0.503 | 0.487 | 0.559 | 0.49 | 0.577 | 0.525

Cell Line | relative viability ([1]; first compound 0.02 µM) | relative viability ([1]; first compound 0.2 µM) | relative viability ([1]; first compound 0.6325 µM) | relative viability ([1]; first compound 2 µM) | relative viability ([2]; first compound 0.02 µM) | relative viability ([2]; first compound 0.2 µM) | relative viability ([2]; first compound 0.6325 µM) | relative viability ([2]; first compound 2 µM) | relative viability ([3]; first compound 0.02 µM) | relative viability ([3]; first compound 0.2 µM) | relative viability ([3]; first compound 0.6325 µM) | relative viability ([3]; first compound 2 µM) | relative viability ([4]; first compound 0.02 µM) | relative viability ([4]; first compound 0.2 µM) | relative viability ([4]; first compound 0.6325 µM) | relative viability ([4]; first compound 2 µM)
NCI-H2009 | 1.18 | 1.16 | 1.08 | 0.726 | 1.31 | 1.27 | 1.12 | 0.669 | 0.226 | 0.322 | 0.248 | 0.271 | 1.15 | 0.968 | 0.85 | 0.656
NCI-H2023 | 1.01 | 0.257 | 0.161 | 0.122 | 0.757 | 0.243 | 0.159 | 0.0994 | 0.542 | 0.185 | 0.102 | 0.0866 | 0.212 | 0.129 | 0.126 | 0.115
NCI-H2085 | 0.972 | 1.14 | 1.08 | 0.875 | 1.02 | 0.899 | 0.93 | 0.592 | 0.192 | 0.218 | 0.21 | 0.301 | 0.886 | 0.893 | 0.857 | 0.599
NCI-H2087 | 0.928 | 0.917 | 0.573 | 0.557 | 1.27 | 1.05 | 0.628 | 0.519 | 0.917 | 0.835 | 0.532 | 0.483 | 0.624 | 0.593 | 0.609 | 0.588
NCI-H2126 | 0.827 | 0.367 | 0.303 | 0.298 | 1.32 | 0.592 | 0.399 | 0.361 | 0.552 | 0.315 | 0.244 | 0.212 | 0.647 | 0.435 | 0.38 | 0.304
NCI-H2170 | 0.573 | 0.557 | 0.351 | 0.31 | 1 | 0.872 | 0.537 | 0.44 | 0.566 | 0.53 | 0.393 | 0.28 | 0.363 | 0.266 | 0.242 | 0.255
NCI-H2228 | 0.808 | 1.06 | 0.732 | 0.42 | 0.981 | 0.808 | 0.625 | 0.343 | 0.562 | 0.457 | 0.349 | 0.268 | 0.3 | 0.334 | 0.39 | 0.367
NCI-H2347 | 0.638 | 0.65 | 0.369 | 0.354 | 0.689 | 0.822 | 0.453 | 0.513 | 0.334 | 0.328 | 0.295 | 0.224 | 0.365 | 0.414 | 0.424 | 0.426
NCI-H2405 | 0.93 | 0.793 | 0.858 | 0.59 | 1 | 1.13 | 1.01 | 1.02 | 0.217 | 0.231 | 0.197 | 0.224 | 1.11 | 1.12 | 1.07 | 0.535
NCI-H3122 | 1.04 | 0.743 | 0.443 | 0.259 | 0.956 | 0.721 | 0.363 | 0.218 | 0.917 | 0.76 | 0.32 | 0.205 | 0.197 | 0.181 | 0.167 | 0.164
PC-3 [JPC-3] | 0.793 | 0.759 | 0.767 | 0.63 | 1.06 | 1.03 | 0.881 | 0.703 | 0.979 | 1.08 | 0.946 | 0.709 | 0.987 | 1.02 | 1.02 | 0.751
PC-14 | 1.13 | 1.05 | 0.791 | 0.499 | 1.1 | 0.987 | 0.757 | 0.58 | 0.247 | 0.268 | 0.274 | 0.188 | 0.128 | 0.14 | 0.147 | 0.18
RERF-LC-KJ | 0.834 | 0.971 | 1.01 | 0.554 | 0.901 | 0.938 | 0.831 | 0.823 | 0.908 | 1.01 | 0.777 | 0.571 | 0.483 | 0.507 | 0.531 | 0.495
SK-LU-1 | 1.1 | 1.2 | 0.796 | 0.753 | 0.819 | 0.902 | 0.75 | 0.681 | 0.189 | 0.182 | 0.195 | 0.166 | 0.959 | 1.01 | 0.916 | 0.763
SK-MES-1 | 1.2 | 0.789 | 0.474 | 0.373 | 0.872 | 0.946 | 0.45 | 0.358 | 0.293 | 0.257 | 0.227 | 0.218 | 0.837 | 0.473 | 0.351 | 0.303
SW 1573 | 1.02 | 1.13 | 0.782 | 0.501 | 0.867 | 1.11 | 0.784 | 0.641 | 0.58 | 0.402 | 0.472 | 0.259 | 0.853 | 0.815 | 0.704 | 0.408
